From ChEMBL document CHEMBL4138206, “Acovenoside A Induces Mitotic Catastrophe Followed by Apoptosis in Non-Small-Cell Lung Cancer Cells” (J Nat Prod, 2017)
Activity calls are given as the source filed them. The rule behind the calls is not given here.

Assays:
[1] = test system: A549; assay: Induction of mitochondrial dysfunction in human A549 cells assessed as cell population with mitochondrial potential loss at 100 nM after 48 hrs by JC-1 staining based flow cytometry (reference value: 7%); assay type: functional
[2] = test system: A549; assay: Induction of mitochondrial dysfunction in human A549 cells assessed as cell population with intact mitochondrial potential at 100 nM after 48 hrs by JC-1 staining based flow cytometry (reference value: 7%); assay type: functional
[3] = test system: A549; assay: Induction of apoptosis in human A549 cells assessed as hypodiploid DNA content at 10 nM after 72 hrs by propidium iodide staining flow cytometry (reference value: 3 to 4%); assay type: functional
[4] = test system: A549; assay: Induction of intracellular ROS production in human A549 cells at 100 nM after 48 hrs by H2DCFDA staining based flow cytometry relative to control; assay type: functional
[5] = test system: PBMC; assay: Cytotoxicity against human PBMC cells assessed as reduction in cell viability after 48 hrs by XTT assay; assay type: cell-based
[6] = test system: HCC827; assay: Cytotoxicity against human HCC827 cells assessed as reduction in cell viability after 48 hrs by XTT assay; assay type: functional, cell-based; details: HCC827, 48 h
[7] = test system: HCC827; assay: Induction of apoptosis in human HCC827 cells assessed as increase in hypodiploid DNA content at 50 to 100 nM after 72 hrs by propidium iodide staining flow cytometry; assay type: functional, cell-based
[8] = test system: A549; assay: Induction of apoptosis in human A549 cells assessed as hypodiploid DNA content at 50 nM after 72 hrs by propidium iodide staining flow cytometry (reference value: 3 to 4%); assay type: functional
[9] = target: Cyclin-dependent kinase 1 (Homo sapiens) (UniProt P06493); assay: Activation of CDK1 in human A549 cells assessed as increase in CDK1 phosphorylation at Tyr15 residues at 100 nM after 24 hrs by western blot analysis; assay type: cell-based
[10] = target: T1, Cyclin-dependent kinase 1/cyclin B1 (Homo sapiens) (UniProt P06493+P14635); assay: Activation of CDK1/cyclinB1 in human A549 cells assessed as increase in cytokinesis defects at 100 nM after 24 hrs by DAPI staining based assay; assay type: cell-based
[11] = test system: A549; assay: Induction of mitochondrial dysfunction in human A549 cells assessed as decrease in ratio of red to green fluorescence intensity at 100 nM after 48 hrs by JC-1 staining based flow cytometry; assay type: functional; parameters: scale not given: the % may be the effect or the level left
[12] = test system: A549; assay: Induction of apoptosis in human A549 cells assessed as activation of caspase 3/7 after 48 hrs by flow cytometry; assay type: functional, cell-based
[13] = test system: A549; assay: Cytotoxicity against human A549 cells assessed as reduction in cell viability pretreated with ROS scavenger ebselen for 1 hr followed by compound addition measured after 24 hrs by XTT assay; assay type: functional, cell-based
[14] = test system: A549; assay: Induction of mitochondrial dysfunction in human A549 cells assessed as decrease in ratio of red to green fluorescence intensity at 50 nM after 48 hrs by JC-1 staining based flow cytometry; assay type: functional; parameters: scale not given: the % may be the effect or the level left
[15] = test system: A549; assay: Induction of apoptosis in human A549 cells assessed as hypodiploid DNA content at 100 nM after 72 hrs by propidium iodide staining flow cytometry (reference value: 3 to 4%); assay type: functional
[16] = target: T1, Cyclin-dependent kinase 1/cyclin B1 (Homo sapiens); assay: Activation of CDK1/cyclinB1 in human A549 cells at 100 nM after 24 hrs by western blot analysis; assay type: cell-based
[17] = test system: A549; assay: Cell cycle arrest in human A549 cells assessed as accumulation at G2/M phase at 50 nM after 24 hrs by propidium iodide staining based flow cytometry (reference value: 18%); assay type: functional
[18] = test system: HCC827; assay: Cell cycle arrest in human HCC827 cells at 50 to 100 nM after 24 hrs by propidium iodide staining based flow cytometry; assay type: functional
[19] = test system: A549; assay: Cytotoxicity against human A549 cells assessed as reduction in cell viability after 24 hrs by XTT assay; assay type: functional, cell-based; details: A549, 24 h
[20] = test system: CAL-12T; assay: Cytotoxicity against human CAL-12T cells assessed as reduction in cell viability after 48 hrs by XTT assay; assay type: functional, cell-based
[21] = test system: A549; assay: Induction of mitochondrial dysfunction in human A549 cells assessed as cell population with mitochondrial potential loss at 50 nM after 48 hrs by JC-1 staining based flow cytometry (reference value: 7%); assay type: functional
[22] = test system: MRC5; assay: Cytotoxicity against human MRC5 cells assessed as reduction in cell viability after 24 hrs by XTT assay; assay type: cell-based; details: MRC5, 24 h
[23] = test system: CAL-12T; assay: Cell cycle arrest in human CAL-12T cells at 50 to 100 nM after 24 hrs by propidium iodide staining based flow cytometry; assay type: functional
[24] = test system: A549; assay: Induction of intracellular ROS production in human A549 cells at 50 nM after 48 hrs by H2DCFDA staining based flow cytometry relative to control; assay type: functional
[25] = test system: A549; assay: Induction of apoptosis in human A549 cells assessed as activation of caspase 3/7 at 100 nM after 48 hrs using Z-DEVD-R110 as substrate by flow cytometry (reference value: 9%); assay type: functional
[26] = test system: A549; assay: Induction of mitochondrial dysfunction in human A549 cells assessed as cell population with intact mitochondrial potential at 50 nM after 48 hrs by JC-1 staining based flow cytometry (reference value: 7%); assay type: functional
[27] = test system: A549; assay: Cell cycle arrest in human A549 cells assessed as accumulation at G0/G1 phase at 50 nM after 24 hrs by propidium iodide staining based flow cytometry (reference value: 61%); assay type: functional
[28] = test system: MDA-MB-231; assay: Cytotoxicity against human MDA-MB-231 cells assessed as reduction in cell viability after 48 hrs by XTT assay; assay type: functional, cell-based; details: MDA-MB-231, 48 h
[29] = test system: A549; assay: Cytotoxicity against human A549 cells assessed as reduction in cell viability pretreated with ROS scavenger edaravone for 1 hr followed by compound addition measured after 24 hrs by XTT assay; assay type: functional, cell-based
[30] = test system: A549; assay: Induction of apoptosis in human A549 cells assessed as activation of caspase 3/7 at 50 nM after 48 hrs using Z-DEVD-R110 as substrate by flow cytometry (reference value: 9%); assay type: functional
[31] = test system: A549; assay: Cell cycle arrest in human A549 cells assessed as accumulation at G2/M phase at 100 nM after 24 hrs by propidium iodide staining based flow cytometry (reference value: 18%); assay type: functional
[32] = test system: A549; assay: Induction of mitotic catastrophe in human A549 cells assessed as population of cells showing increase in size at 100 nM after 24 hrs by flow cytometry (reference value: 5.7%); assay type: functional
[33] = test system: A549; assay: Cell cycle arrest in human A549 cells assessed as accumulation at G0/G1 phase at 100 nM after 24 hrs by propidium iodide staining based flow cytometry (reference value: 61%); assay type: functional
[34] = test system: A549; assay: Cytotoxicity against human A549 cells assessed as reduction in cell viability pretreated with ROS scavenger tempol for 1 hr followed by compound addition measured after 24 hrs by XTT assay; assay type: functional, cell-based
[35] = target: T1, Cyclin-dependent kinase 1/cyclin B1 (Homo sapiens); assay: Activation of CDK1/cyclinB1 in human A549 cells at 50 to 100 nM after 12 hrs by western blot analysis; assay type: cell-based
[36] = test system: CAL-12T; assay: Induction of apoptosis in human CAL-12T cells assessed as increase in hypodiploid DNA content at 50 to 100 nM after 72 hrs by propidium iodide staining flow cytometry; assay type: functional, cell-based
[37] = test system: A549; assay: Cytotoxicity against human A549 cells assessed as reduction in cell viability after 48 hrs by XTT assay; assay type: functional, cell-based; details: A549, 48 h
[38] = test system: MDA-MB-231; assay: Cytotoxicity against human MDA-MB-231 cells assessed as reduction in cell viability after 24 hrs by XTT assay; assay type: functional, cell-based; details: MDA-MB-231, 24 h
[39] = test system: A549; assay: Cell cycle arrest in human A549 cells assessed as accumulation at G2/M phase after 24 hrs by propidium iodide staining based flow cytometry; assay type: functional

T1 sequence (P06493 whole entry, looked up): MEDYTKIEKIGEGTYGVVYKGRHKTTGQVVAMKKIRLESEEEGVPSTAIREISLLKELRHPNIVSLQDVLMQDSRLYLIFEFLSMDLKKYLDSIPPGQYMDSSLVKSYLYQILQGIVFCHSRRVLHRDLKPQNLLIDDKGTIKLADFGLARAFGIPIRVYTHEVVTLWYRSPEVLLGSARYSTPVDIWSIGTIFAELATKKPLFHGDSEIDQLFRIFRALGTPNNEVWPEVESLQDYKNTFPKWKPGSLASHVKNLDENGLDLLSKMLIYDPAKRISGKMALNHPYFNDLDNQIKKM
T1 sequence (P14635 whole entry, looked up): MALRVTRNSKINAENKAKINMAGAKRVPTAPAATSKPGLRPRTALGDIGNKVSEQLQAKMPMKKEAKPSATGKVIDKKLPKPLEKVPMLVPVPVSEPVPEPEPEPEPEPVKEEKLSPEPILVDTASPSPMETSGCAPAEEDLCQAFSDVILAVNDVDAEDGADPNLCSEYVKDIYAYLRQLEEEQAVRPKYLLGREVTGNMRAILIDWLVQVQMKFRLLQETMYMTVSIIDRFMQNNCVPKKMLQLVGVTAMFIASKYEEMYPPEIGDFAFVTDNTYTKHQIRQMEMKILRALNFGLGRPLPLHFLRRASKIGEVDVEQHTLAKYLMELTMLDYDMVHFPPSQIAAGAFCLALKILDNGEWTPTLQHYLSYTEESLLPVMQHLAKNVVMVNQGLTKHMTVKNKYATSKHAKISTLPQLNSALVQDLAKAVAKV
Chain of Cyclin-dependent kinase 1 (Homo sapiens) (P06493 whole entry, looked up): as the sequence (P06493 whole entry, looked up) above

`COc1cccc2c1C(=O)c1c(O)c3c(c(O)c1C2=O)C[C@@](O)(C(=O)CO)C[C@@H]3O[C@H]1C[C@H](N)[C@H](O)[C@H](C)O1` [DOXORUBICIN] was tested, and the Activity [1] was 8.2% and the Activity [2] was 12.4%.
In the case of `CO[C@H]1[C@H](O)[C@H](O[C@@H]2C[C@H]3CC[C@@H]4[C@H](CC[C@]5(C)[C@@H](C6=CC(=O)OC6)CC[C@]45O)[C@@]3(C)[C@H](O)C2)O[C@@H](C)[C@@H]1O`, the Activity [3] is reported as 3%, the “fold change (FC)” value [4] is reported as 2.8 and the Activity [5] is reported as “Non-Toxic”. The IC50 [6] was 701 nM, the Activity [7] was “Active” and the Activity [8] was 13 - 17%. For the same compound, the Activity [9] was “Active”, the Activity [10] was 34.3% and the Activity [11] was 40%. The Activity [12] was “Dose-dependent effect”, the Activity [13] was “Active” and the Activity [14] was 20%. The Activity [1] was 9%, the Activity [15] was 51 - 55% and the Activity [16] was “Active”. For the same compound, the Activity [17] was 29%, the Activity [18] was “inactive” and the IC50 [19] was 95 nM. The IC50 [20] was 161 nM, the Activity [21] was 8.8% and the IC50 [22] was over 1000 nM. For the same compound, the Activity [23] was “Active”, the “fold change (FC)” value [24] was 1.5 and the Activity [25] was 65%. For the same compound, the Activity [2] was 13.9%, the Activity [26] was 9% and the Activity [27] was 50%. For the same compound, the IC50 [28] was 1500 nM, the Activity [29] was “Active” and the Activity [30] was 38%. It also gave an Activity [31] of 43%, an Activity [32] of 29.8% and an Activity [33] of 31%. The Activity [34] was “Active”, the Activity [35] was “Active” and the Activity [36] was “Active”. For the same compound, the IC50 [37] was 68 nM, the IC50 [38] was 4200 nM and the Activity [39] was “Dose-dependent effect”.
